Experimental data reported in the supplement of paper PMC10307832.

Tests used:
Test in all cases: relative viability (nuclei count vs DMSO), 5 days (fraction); higher = more cells survive
ABC-1 = tested on: ABC-1
How it was run: (§1)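 Nuclei were stained with Hoechst during a one-step fixation (final 0.05% Triton X-100, 1% formaldehyde, 1 ug/ml Hoechst) carried out 5 days after dosing, then counted on 4× images. The cells, lung cancer lines in 1536-well plates, had been dosed by pin tool the day after seeding with one drug alone or a fixed anchor-drug dose plus five library-drug doses (not always all listed) in √10 steps. Relative viability is the nuclei count in treated wells divided by that in vehicle wells, and each value is the median of duplicate plates.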

CAL-12T = tested on: CAL-12T
How it was run: as §1

ChaGo-K-1 = tested on: ChaGo-K-1
How it was run: as §1

HCC-366 = tested on: HCC-366
How it was run: as §1

HCC-78 = tested on: HCC-78
How it was run: as §1

LC-2-ad = tested on: LC-2-ad
How it was run: as §1

LOU-NH91 = tested on: LOU-NH91
How it was run: as §1

LU99A = tested on: LU99A
How it was run: as §1

NCI-H1395 = tested on: NCI-H1395
How it was run: as §1

NCI-H1651 = tested on: NCI-H1651
How it was run: as §1

NCI-H1755 = tested on: NCI-H1755
How it was run: as §1

NCI-H1793 = tested on: NCI-H1793
How it was run: as §1

NCI-H1944 = tested on: NCI-H1944
How it was run: as §1

NCI-H2087 = tested on: NCI-H2087
How it was run: as §1

NCI-H2170 = tested on: NCI-H2170
How it was run: as §1

NCI-H2228 = tested on: NCI-H2228
How it was run: as §1

NCI-H2405 = tested on: NCI-H2405
How it was run: as §1

NCI-H3122 = tested on: NCI-H3122
How it was run: as §1

NCI-H460 = tested on: NCI-H460
How it was run: as §1

PC-3 [JPC-3] = tested on: PC-3 [JPC-3]
How it was run: as §1

RERF-LC-KJ = tested on: RERF-LC-KJ
How it was run: as §1

UMC-11 = tested on: UMC-11
How it was run: as §1

With `Cc1sc2c(c1C)C(c1ccc(Cl)cc1)=N[C@@H](CC(=O)OC(C)(C)C)c1nnc(C)n1-2` [JQ1] + CC(=O)c1c(C)c2cnc(Nc3ccc(N4CCNCC4)cn3)nc2n(C2CCCC2)c1=O [Palbociclib] (partner 0.5 µM) the relative viability (ABC-1; first compound 0.04 µM) was 0.701, the relative viability (ABC-1; first compound 0.1265 µM) was 0.479 and the relative viability (ABC-1; first compound 0.4 µM) was 0.44. The relative viability (ABC-1; first compound 1.265 µM) was 0.451, the relative viability (ABC-1; first compound 4 µM) was 0.334 and the relative viability (CAL-12T; first compound 0.04 µM) was 0.413. The relative viability (CAL-12T; first compound 0.1265 µM) was 0.377, the relative viability (CAL-12T; first compound 0.4 µM) was 0.226 and the relative viability (CAL-12T; first compound 1.265 µM) was 0.114. It also gave a relative viability (CAL-12T; first compound 4 µM) of 0.233, a relative viability (ChaGo-K-1; first compound 0.04 µM) of 0.942 and a relative viability (ChaGo-K-1; first compound 0.1265 µM) of 0.909. For the same molecule, the relative viability (ChaGo-K-1; first compound 0.4 µM) was 0.952, the relative viability (ChaGo-K-1; first compound 1.265 µM) was 0.674 and the relative viability (ChaGo-K-1; first compound 4 µM) was 0.525. For the same molecule, the relative viability (HCC-366; first compound 0.04 µM) was 0.415, the relative viability (HCC-366; first compound 0.4 µM) was 0.202 and the relative viability (HCC-366; first compound 1.265 µM) was 0.137. For the same molecule, the relative viability (HCC-366; first compound 4 µM) was 0.0766, the relative viability (HCC-78; first compound 0.04 µM) was 0.489 and the relative viability (HCC-78; first compound 0.1265 µM) was 0.523. For the same molecule, the relative viability (HCC-78; first compound 0.4 µM) was 0.511, the relative viability (HCC-78; first compound 1.265 µM) was 0.469 and the relative viability (HCC-78; first compound 4 µM) was 0.513. For the same molecule, the relative viability (LC-2-ad; first compound 0.04 µM) was 0.514, the relative viability (LC-2-ad; first compound 0.1265 µM) was 0.433 and the relative viability (LC-2-ad; first compound 0.4 µM) was 0.342. For the same molecule, the relative viability (LC-2-ad; first compound 1.265 µM) was 0.279, the relative viability (LC-2-ad; first compound 4 µM) was 0.281 and the relative viability (LOU-NH91; first compound 0.04 µM) was 0.493. It also gave a relative viability (LOU-NH91; first compound 0.1265 µM) of 0.474, a relative viability (LOU-NH91; first compound 0.4 µM) of 0.491 and a relative viability (LOU-NH91; first compound 1.265 µM) of 0.394. The relative viability (LOU-NH91; first compound 4 µM) was 0.446, the relative viability (LU99A; first compound 0.04 µM) was 0.465 and the relative viability (LU99A; first compound 0.4 µM) was 0.287. The relative viability (LU99A; first compound 1.265 µM) was 0.185, the relative viability (LU99A; first compound 4 µM) was 0.176 and the relative viability (NCI-H1395; first compound 0.04 µM) was 0.591. For the same molecule, the relative viability (NCI-H1395; first compound 0.1265 µM) was 0.556, the relative viability (NCI-H1395; first compound 0.4 µM) was 0.602 and the relative viability (NCI-H1395; first compound 1.265 µM) was 0.443. It also gave a relative viability (NCI-H1395; first compound 4 µM) of 0.395, a relative viability (NCI-H1651; first compound 0.04 µM) of 0.494 and a relative viability (NCI-H1651; first compound 0.1265 µM) of 0.416. It also gave a relative viability (NCI-H1651; first compound 0.4 µM) of 0.403, a relative viability (NCI-H1651; first compound 1.265 µM) of 0.299 and a relative viability (NCI-H1651; first compound 4 µM) of 0.282. For the same molecule, the relative viability (NCI-H1755; first compound 0.04 µM) was 0.434, the relative viability (NCI-H1755; first compound 0.1265 µM) was 0.426 and the relative viability (NCI-H1755; first compound 0.4 µM) was 0.416. For the same molecule, the relative viability (NCI-H1755; first compound 1.265 µM) was 0.388, the relative viability (NCI-H1755; first compound 4 µM) was 0.353 and the relative viability (NCI-H1793; first compound 0.04 µM) was 0.331. The relative viability (NCI-H1793; first compound 0.1265 µM) was 0.307, the relative viability (NCI-H1793; first compound 0.4 µM) was 0.274 and the relative viability (NCI-H1793; first compound 1.265 µM) was 0.335. The relative viability (NCI-H1793; first compound 4 µM) was 0.334, the relative viability (NCI-H1944; first compound 0.04 µM) was 0.327 and the relative viability (NCI-H1944; first compound 0.1265 µM) was 0.308. It also gave a relative viability (NCI-H1944; first compound 0.4 µM) of 0.232, a relative viability (NCI-H1944; first compound 1.265 µM) of 0.217 and a relative viability (NCI-H1944; first compound 4 µM) of 0.179. For the same molecule, the relative viability (NCI-H2087; first compound 0.04 µM) was 0.234, the relative viability (NCI-H2087; first compound 0.1265 µM) was 0.214 and the relative viability (NCI-H2087; first compound 0.4 µM) was 0.153. The relative viability (NCI-H2087; first compound 1.265 µM) was 0.157, the relative viability (NCI-H2087; first compound 4 µM) was 0.163 and the relative viability (NCI-H2170; first compound 0.04 µM) was 0.342. It also gave a relative viability (NCI-H2170; first compound 0.1265 µM) of 0.353, a relative viability (NCI-H2170; first compound 0.4 µM) of 0.267 and a relative viability (NCI-H2170; first compound 1.265 µM) of 0.178. The relative viability (NCI-H2170; first compound 4 µM) was 0.185, the relative viability (NCI-H2228; first compound 0.04 µM) was 0.657 and the relative viability (NCI-H2228; first compound 0.1265 µM) was 0.704. It also gave a relative viability (NCI-H2228; first compound 0.4 µM) of 0.641, a relative viability (NCI-H2228; first compound 1.265 µM) of 0.293 and a relative viability (NCI-H2228; first compound 4 µM) of 0.379. It also gave a relative viability (NCI-H2405; first compound 0.04 µM) of 0.571, a relative viability (NCI-H2405; first compound 0.4 µM) of 0.522 and a relative viability (NCI-H2405; first compound 1.265 µM) of 0.471. It also gave a relative viability (NCI-H2405; first compound 4 µM) of 0.311, a relative viability (NCI-H3122; first compound 0.04 µM) of 0.22 and a relative viability (NCI-H3122; first compound 0.1265 µM) of 0.203. It also gave a relative viability (NCI-H3122; first compound 0.4 µM) of 0.191, a relative viability (NCI-H3122; first compound 1.265 µM) of 0.185 and a relative viability (NCI-H3122; first compound 4 µM) of 0.139. For the same molecule, the relative viability (NCI-H460; first compound 0.04 µM) was 0.172, the relative viability (NCI-H460; first compound 0.1265 µM) was 0.0585 and the relative viability (NCI-H460; first compound 0.4 µM) was 0.0456. The relative viability (NCI-H460; first compound 1.265 µM) was 0.0198, the relative viability (NCI-H460; first compound 4 µM) was 0.0263 and the relative viability (PC-3 [JPC-3]; first compound 0.04 µM) was 0.532. It also gave a relative viability (PC-3 [JPC-3]; first compound 0.1265 µM) of 0.554, a relative viability (PC-3 [JPC-3]; first compound 0.4 µM) of 0.513 and a relative viability (PC-3 [JPC-3]; first compound 1.265 µM) of 0.575. For the same molecule, the relative viability (PC-3 [JPC-3]; first compound 4 µM) was 0.438, the relative viability (RERF-LC-KJ; first compound 0.04 µM) was 1.13 and the relative viability (RERF-LC-KJ; first compound 0.1265 µM) was 0.868. For the same molecule, the relative viability (RERF-LC-KJ; first compound 0.4 µM) was 0.887, the relative viability (RERF-LC-KJ; first compound 1.265 µM) was 0.254 and the relative viability (RERF-LC-KJ; first compound 4 µM) was 0.246. The relative viability (UMC-11; first compound 0.04 µM) was 0.292, the relative viability (UMC-11; first compound 0.1265 µM) was 0.226 and the relative viability (UMC-11; first compound 0.4 µM) was 0.227. It also gave a relative viability (UMC-11; first compound 1.265 µM) of 0.257 and a relative viability (UMC-11; first compound 4 µM) of 0.184.
